{"source": "paper PMC4767605", "about": "(Cancer chemotherapy and pharmacology, 2016)", "assay": "Phase I study: plasma pharmacokinetics of ASP9853 and docetaxel", "assay_type": "in vivo, human", "settings": "compared with reported docetaxel alone [29]", "data": [{"compound": "CC(=O)O[C@@]12CO[C@@H]1C[C@H](O)[C@@]1(C)C(=O)[C@H](O)C3=C(C)[C@@H](OC(=O)[C@H](O)[C@@H](NC(=O)OC(C)(C)C)c4ccccc4)C[C@@](O)([C@@H](OC(=O)c4ccccc4)[C@H]21)C3(C)C", "note": "[docetaxel, reference compound]", "values": [{"measurement": "Docetaxel PK in combination with ASP9853", "result": "appeared similar to that reported for docetaxel alone"}]}]}
